The target of the assay is hLPA1 (Homo sapiens, UniProt Q92633). As to the kind of experiment: LPA1 functional antagonist assay (LPA-induced calcium flux in CHO cells overexpressing human LPA1). The assay is classed as cell-based. The following applies: antagonist mode, inhibition of calcium flux induced by 10 nM LPA, read-out: hLPA1 IC50. On the set-up: expressed in transfected cells; host or cells: Chinese hamster ovary (CHO) cells. The procedure:
The effectiveness of compounds of the present invention as LPA1 inhibitors can be determined in an LPA1 functional antagonist assay as follows:
Chinese hamster ovary cells overexpressing human LPA1 were plated overnight (15,000 cells/well) in poly-D-lysine coated 384-well microplates (Greiner bio-one, Cat #781946) in DMEM/F12 medium (Gibco, Cat #11039). Following overnight culture, cells were loaded with calcium indicator dye (AAT Bioquest Inc, Cat #34601) for 30 minutes at 37° C. The cells were then equilibrated to room temperature for 30 minutes before the assay. Test compounds solubilized in DMSO were transferred to 384 well non-binding surface plates (Corning, Cat #3575) using the Labcyte Echo acoustic dispense and diluted with assay buffer [1×HBSS with calcium/magnesium (Gibco Cat #14025-092), 20 mM HEPES (Gibco Cat #15630-080) and 0.1% fatty acid free BSA (Sigma Cat #A9205)] to a final concentration of 0.5% DMSO. Diluted compounds were added to the cells by FDSS6000 (Hamamatsu) at final concentrations ranging from 0.08 nM to 5 μM. and were then incubated for 20 min at room temperature at which time LPA (Avanti Polar Lipids Cat #857130C) was added at final concentrations of 10 nM to stimulate the cells. The compound IC50 value was defined as the concentration of test compound which inhibited 50% of the calcium flux induced by LPA alone. IC50 values were determined by fitting data to a 4-parameter logistic equation (GraphPad Prism, San Diego Calif.).

Sequence of hLPA1 (Q92633 whole entry): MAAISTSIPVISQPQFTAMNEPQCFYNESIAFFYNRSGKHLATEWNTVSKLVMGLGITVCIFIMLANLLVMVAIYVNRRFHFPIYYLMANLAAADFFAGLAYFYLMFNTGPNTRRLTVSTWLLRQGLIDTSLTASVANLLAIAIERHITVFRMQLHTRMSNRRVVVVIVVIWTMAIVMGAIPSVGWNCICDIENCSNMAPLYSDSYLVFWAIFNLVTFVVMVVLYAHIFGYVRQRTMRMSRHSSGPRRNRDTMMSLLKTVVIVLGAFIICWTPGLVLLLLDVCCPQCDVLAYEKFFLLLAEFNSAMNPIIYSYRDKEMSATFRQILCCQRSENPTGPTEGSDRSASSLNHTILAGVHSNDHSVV

For the compound “2-(4-(4-(4 2-(4-(4-(4-((((cyclobutyl-methyl)carbamoyl)oxy)methyl)-3-methylisoxazol-5-yl)phenyl)-2-oxabicyclo[2.2.2]octan-1-yl)acetic acid [Example 35]”, the IC50 came to 655 nM. The figure for “2-(4-(4-(4-((((cyclobutylmethyl)(methyl)carbamoyl)oxy)methyl)-3-methylisoxazol-5-yl)phenyl)-2-oxabicyclo[2.2.2]octan-1-yl)acetic acid [Example 34]” is 158 nM; for `CC(C1CCC1)N(C)C(=O)OCc1c(-c2ccc(C34CCC(CCC(=O)O)(CC3)OC4)cc2)nnn1C` (racemic) [Example 5, (±)-3-(4-(4-(5-((((1-Cyclobutylethyl)(methyl)carbamoyl)oxy)methyl)-1-methyl-1H-1,2,3-triazol-4-yl)phenyl)-2-oxabicyclo[2.2.2]octan-1-yl)propanoic acid] it is 440 nM; for `Cc1noc(-c2ccc(C34CCC(CC(=O)O)(CC3)OC4)cc2)c1NC(=O)OC(C)c1ccc(Cl)cc1` (racemic) [Example 14] it is 117 nM. The figure for `Cc1noc(-c2ccc(C34CCC(CC(=O)O)(CC3)OC4)cc2)c1NC(=O)OC(C)c1cccc(Cl)c1` (racemic) [Example 15, (±)-2-(4-(4-(4-(((1-(3-chlorophenyl)ethoxy)carbonyl)amino)-3-methyl-isoxazol-5-yl)phenyl)-2-oxabicyclo[2.2.2]octan-1-yl)acetic acid] is 379 nM. For `Cc1noc(-c2ccc(C34CCC(CC(=O)O)(CC3)OC4)c(F)c2)c1NC(=O)OC(C)c1cccc(Cl)c1` (racemic) [Example 19, (±)-2-(4-(4-(4-(((1-(3-chlorophenyl)ethoxy)carbonyl)amino)-3-methyl-isoxazol-5-yl)-2-fluorophenyl)-2-oxabicyclo[2.2.2]octan-1-yl)acetic acid] the value was 692 nM; for `Cc1noc(-c2ccc(C34CCC(CC(=O)O)(CC3)OC4)cc2F)c1NC(=O)OC(C)c1ccc(Cl)cc1` (racemic) [Example 24, (±)-2-(4-(4-(4-(((1-(4-chlorophenyl)ethoxy)carbonyl)amino)-3-methyl-isoxazol-5-yl)-3-fluorophenyl)-2-oxabicyclo[2.2.2]octan-1-yl)acetic acid], 406 nM; for `Cc1noc(-c2ccc(C34CCC(CC(=O)O)(CC3)OC4)cc2F)c1NC(=O)OC(C)c1cccc(Cl)c1` (racemic) [Example 25, (±)-2-(4-(4-(4-(((1-(3-chlorophenyl)ethoxy)carbonyl)amino)-3-methyl-isoxazol-5-yl)-3-fluorophenyl)-2-oxabicyclo[2.2.2]octan-1-yl)acetic acid], 345 nM. Consider `Cc1cc(C23CCC(CC(=O)O)(CC2)OC3)ccc1-c1onc(C)c1NC(=O)O[C@H](C)c1ccccc1C` (racemic) [Example 26, (±)-2-(4-(3-methyl-4-(3-methyl-4-((((R)-1-(o-tolyl)ethoxy)carbonyl)amino)isoxazol-5-yl)phenyl)-2-oxabicyclo[2.2.2]octan-1-yl)acetic acid], for which the IC50 was 92 nM. For `CC(OC(=O)Nc1c(-c2ccc(C34CCC(CC(=O)O)(CC3)OC4)c(F)c2)cnn1C)c1ccc(Cl)cc1` (racemic) [Example 29, (±)-2-(4-(4-(5-(((1-(4-chlorophenyl)ethoxy)carbonyl)amino)-1-methyl-1H-pyrazol-4-yl)-2-fluorophenyl)-2-oxabicyclo[2.2.2]octan-1-yl)acetic acid] the value was 1140 nM; for `CC(C1CC1)N(C)C(=O)OCc1c(-c2ccc(C34CCC(CC(=O)O)(CC3)OC4)cc2)cnn1C` (racemic) [Example 36, (rac)-2-(4-(4-(5-((((1-cyclopropyl-ethyl)(methyl)carbamoyl)oxy)methyl)-1-methyl-1-pyrazol-4-yl)phenyl)-2-oxabicyclo[2.2.2]octan-1-yl)acetic acid], 1890 nM; for `CC(C1CCC1)N(C)C(=O)OCc1c(-c2ccc(C34CCC(CC(=O)O)(CC3)OC4)cc2)cnn1C` (racemic) [Example 37, (rac)-2-(4-(4-(5-((((1-cyclobutyl-ethyl)(methyl)carbamoyl)oxy)methyl)-1-methyl-1H-pyrazol-4-yl)phenyl)-2-oxabicyclo[2.2.2]octan-1-yl)acetic acid], 166 nM. The figure for `Cc1noc(-c2ccc(C34CCC(CC(=O)O)(CC3)OC4)cc2)c1NC(=O)O[C@H](C)c1ccccc1` [Example 1, 2-(4-(4-(3-methyl-4-((((R)-1-phenylethoxy)carbonyl)amino)isoxazol-5-yl)phenyl)-2-oxabicyclo [2.2.2]octan-1-yl)acetic acid] is 116 nM.

Regarding `C[C@@H](OC(=O)Nc1c(-c2ccc(C34CCC(CC(=O)O)(CC3)OC4)cc2)cnn1C)c1ccccc1` [Example 2, 2-(4-(4-(1-methyl-5-((((R)-1-phenylethoxy)carbonyl)amino)-1H-pyrazol-4-yl)phenyl)-2-oxabicyclo[2.2.2]octan-1-yl)acetic acid], the IC50 amounted to 88 nM. Turning to `Cc1noc(-c2ccc(C34CCC(CC(=O)O)(CC3)OC4)cc2)c1COC(=O)N(C)C1CCCC1` [Example 3, 2-(4-(4-(4-(((cyclopentyl(methyl)carbamoyl)oxy)methyl)-3-methylisoxazol-5-yl)phenyl)-2-oxabicyclo[2.2.2]octan-1-yl)acetic acid], the IC50 was 317 nM. The figure for `CN(C(=O)OCc1c(-c2ccc(C34CCC(CC(=O)O)(CC3)OC4)cc2)cnn1C)C1CCCC1` [Example 4, 2-(4-(4-(5-(((cyclopentyl(methyl)carbamoyl)oxy)methyl)-1-methyl-1H-pyrazol-4-yl)phenyl)-2-oxabicyclo[2.2.2]octan-1-yl)acetic acid] is 1610 nM; for `CN(C(=O)OCc1c(-c2ccc(C34CCC(CC(=O)O)(CC3)OC4)c(F)c2)nnn1C)C1CCCC1` [Example 6, 2-(4-(4-(5-(((Cyclopentyl(methyl)carbamoyl)oxy)methyl)-1-methyl-1H-1,2,3-triazol-4-yl)-2-fluorophenyl)-2-oxabicyclo[2.2.2]octan-1-yl)acetic acid] it is 363 nM; for `C[C@@H](OC(=O)Nc1c(-c2ccc(C34CCC(CCC(=O)O)(CC3)OC4)cc2)nnn1C)c1ccccc1` [Example 7, 3-(4-(4-(1-methyl-5-((((R)-1-phenylethoxy)carbonyl)amino)-1H-1,2,3-triazol-4-yl)phenyl)-2-oxabicyclo[2.2.2]octan-1-yl)propanoic acid] it is 264 nM. For the compound `C[C@@H](OC(=O)Nc1c(-c2ccc(C34CCC(CCC(=O)O)(CC3)OC4)cc2)nnn1C)c1ccccc1Cl` [Example 8, 3-(4-(4-(5-((((R)-1-(2-chlorophenyl)ethoxy)carbonyl)amino)-1-methyl-1H-1,2,3-triazol-4-yl)phenyl)-2-oxabicyclo[2.2.2]octan-1-yl)propanoic acid], the IC50 worked out at 418 nM. The figure for `C[C@@H](OC(=O)Nc1c(-c2ccc(C34CCC(C(=O)O)(CC3)OC4)cc2)cnn1C)c1ccccc1` [Example 9, (R)-4-(4-(1-methyl-5-(((1-phenylethoxy)carbonyl)amino)-1H-pyrazol-4-yl)phenyl)-2-oxabicyclo[2.2.2]octane-1-carboxylic acid] is 278 nM; for `C[C@@H](OC(=O)Nc1c(-c2ccc(C34CCC(CC(=O)O)(CC3)OC4)cc2)cnn1CC1CC1)c1ccccc1` [Example 10, (R)-2-(4-(4-(1-(cyclopropylmethyl)-5-(((1-phenylethoxy)carbonyl)amino)-1H-pyrazol-4-yl)phenyl)-2-oxabicyclo[2.2.2]octan-1-yl)acetic acid] it is 422 nM. For `Cc1noc(-c2ccc(C34CCC(CC(=O)O)(CC3)OC4)cc2)c1NC(=O)O[C@H](C)C1CC1` [Example 11, 2-(4-(4-(4-((((R)-1-cyclopropyl-ethoxy)carbonyl)amino)-3-methylisoxazol-5-yl)phenyl)-2-oxabicyclo[2.2.2]octan-1-yl)acetic acid] the value was 194 nM; for `Cc1noc(-c2ccc(C34CCC(CC(=O)O)(CC3)OC4)cc2)c1NC(=O)O[C@H](C)c1ccccc1Cl` [Example 12, 2-(4-(4-(4-((((R)-1-(2-chlorophenyl)ethoxy)carbonyl)amino)-3-methylisoxazol-5-yl)phenyl)-2-oxabicyclo[2.2.2]octan-1-yl)acetic acid], 72 nM.

Turning to `Cc1ccccc1[C@@H](C)OC(=O)Nc1c(C)noc1-c1ccc(C23CCC(CC(=O)O)(CC2)OC3)cc1` [Example 13, 2-(4-(4-(3-methyl-4-((((R)-1-(o-tolyl)ethoxy)carbonyl)amino)isoxazol-5-yl)phenyl)-2-oxabicyclo[2.2.2]octan-1-yl)acetic acid], the IC50 came to 184 nM.

Turning to `Cc1noc(-c2ccc(C34CCC(CC(=O)O)(CC3)OC4)c(F)c2)c1NC(=O)O[C@H](C)C1CC1` [Example 16, 2-(4-(4-(4-((((R)-1-cyclopropylethoxy)carbonyl)amino)-3-methylisoxazol-5-yl)-2-fluorophenyl)-2-oxabicyclo[2.2.2]octan-1-yl)acetic acid], the IC50 turned out to be 407 nM.

Source of the values: patent US12428430B2 (BRISTOL-MYERS SQUIBB COMPANY, priority 2018, dated 2025).
